Measured values taken from paper doi:10.1101/2024.08.13.607785v1 (biorxiv, 2024).
Like-named read-outs stand apart in the source and are kept apart here. Each block holds one compound with its values, some of them ahead of it.

Experiments:
Test in all cases: biochemical
Design in all cases: species or system human cell line lysate
[1] = biological target: Dual specificity protein kinase CLK4 ; CLK4 ; Q9HAZ1 (Homo sapiens, UniProt Q9HAZ1)
[2] = biological target: Serine/threonine-protein kinase PDIK1L ; PDIK1L ; Q8N165 (Homo sapiens, UniProt Q8N165)
[3] = biological target: Isoform CSBP1 of Mitogen-activated protein kinase 14 ; MAPK14 ; Q16539-2 (Homo sapiens, UniProt Q16539)
[4] = biological target: EKC/KEOPS complex subunit TP53RK ; TP53RK ; Q96S44 (Homo sapiens, UniProt Q96S44)
Chain of EKC/KEOPS complex subunit TP53RK ; TP53RK ; Q96S44 (Q96S44 whole entry, one chain of several): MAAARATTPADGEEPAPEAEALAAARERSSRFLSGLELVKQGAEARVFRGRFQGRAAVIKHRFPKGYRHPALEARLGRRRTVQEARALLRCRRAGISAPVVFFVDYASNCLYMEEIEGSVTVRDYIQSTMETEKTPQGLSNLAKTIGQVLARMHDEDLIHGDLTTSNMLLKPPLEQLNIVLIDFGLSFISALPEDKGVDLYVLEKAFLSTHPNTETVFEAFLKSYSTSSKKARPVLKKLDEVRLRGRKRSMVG

[5] = biological target: Mitogen-activated protein kinase 11 ; MAPK11 ; Q15759 (Homo sapiens, UniProt Q15759)
Chain of Mitogen-activated protein kinase 11 ; MAPK11 ; Q15759 (Q15759 whole entry): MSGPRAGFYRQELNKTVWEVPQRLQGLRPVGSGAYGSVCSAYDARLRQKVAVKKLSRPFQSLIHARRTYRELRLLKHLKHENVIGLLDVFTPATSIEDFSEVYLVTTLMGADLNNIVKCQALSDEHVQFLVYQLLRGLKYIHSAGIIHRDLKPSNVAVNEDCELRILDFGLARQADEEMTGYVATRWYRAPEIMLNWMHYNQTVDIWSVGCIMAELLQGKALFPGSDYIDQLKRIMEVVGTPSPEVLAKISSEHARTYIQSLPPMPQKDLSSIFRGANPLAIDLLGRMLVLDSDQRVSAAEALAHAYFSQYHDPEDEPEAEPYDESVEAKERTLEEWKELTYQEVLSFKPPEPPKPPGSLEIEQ

[6] = biological target: Microtubule-associated serine/threonine-protein kinase 3 ; MAST3 ; O60307 (Homo sapiens, UniProt O60307)
[7] = biological target: Inhibitor of nuclear factor kappa-B kinase subunit epsilon ; IKBKE ; Q14164 (Homo sapiens, UniProt Q14164)
[8] = biological target: Ribosomal protein S6 kinase beta-1 ; RPS6KB1 ; P23443 (Homo sapiens, UniProt P23443)
[9] = biological target: Phosphatidylinositol 3-kinase catalytic subunit type 3 ; PIK3C3 ; Q8NEB9 (Homo sapiens, UniProt Q8NEB9)
[10] = biological target: Serine/threonine-protein kinase PLK4 ; PLK4 ; O00444 (Homo sapiens, UniProt O00444)
[11] = biological target: 1-phosphatidylinositol 3-phosphate 5-kinase ; PIKFYVE ; Q9Y2I7 (Homo sapiens, UniProt Q9Y2I7)
Chain of 1-phosphatidylinositol 3-phosphate 5-kinase ; PIKFYVE ; Q9Y2I7 (Q9Y2I7 whole entry): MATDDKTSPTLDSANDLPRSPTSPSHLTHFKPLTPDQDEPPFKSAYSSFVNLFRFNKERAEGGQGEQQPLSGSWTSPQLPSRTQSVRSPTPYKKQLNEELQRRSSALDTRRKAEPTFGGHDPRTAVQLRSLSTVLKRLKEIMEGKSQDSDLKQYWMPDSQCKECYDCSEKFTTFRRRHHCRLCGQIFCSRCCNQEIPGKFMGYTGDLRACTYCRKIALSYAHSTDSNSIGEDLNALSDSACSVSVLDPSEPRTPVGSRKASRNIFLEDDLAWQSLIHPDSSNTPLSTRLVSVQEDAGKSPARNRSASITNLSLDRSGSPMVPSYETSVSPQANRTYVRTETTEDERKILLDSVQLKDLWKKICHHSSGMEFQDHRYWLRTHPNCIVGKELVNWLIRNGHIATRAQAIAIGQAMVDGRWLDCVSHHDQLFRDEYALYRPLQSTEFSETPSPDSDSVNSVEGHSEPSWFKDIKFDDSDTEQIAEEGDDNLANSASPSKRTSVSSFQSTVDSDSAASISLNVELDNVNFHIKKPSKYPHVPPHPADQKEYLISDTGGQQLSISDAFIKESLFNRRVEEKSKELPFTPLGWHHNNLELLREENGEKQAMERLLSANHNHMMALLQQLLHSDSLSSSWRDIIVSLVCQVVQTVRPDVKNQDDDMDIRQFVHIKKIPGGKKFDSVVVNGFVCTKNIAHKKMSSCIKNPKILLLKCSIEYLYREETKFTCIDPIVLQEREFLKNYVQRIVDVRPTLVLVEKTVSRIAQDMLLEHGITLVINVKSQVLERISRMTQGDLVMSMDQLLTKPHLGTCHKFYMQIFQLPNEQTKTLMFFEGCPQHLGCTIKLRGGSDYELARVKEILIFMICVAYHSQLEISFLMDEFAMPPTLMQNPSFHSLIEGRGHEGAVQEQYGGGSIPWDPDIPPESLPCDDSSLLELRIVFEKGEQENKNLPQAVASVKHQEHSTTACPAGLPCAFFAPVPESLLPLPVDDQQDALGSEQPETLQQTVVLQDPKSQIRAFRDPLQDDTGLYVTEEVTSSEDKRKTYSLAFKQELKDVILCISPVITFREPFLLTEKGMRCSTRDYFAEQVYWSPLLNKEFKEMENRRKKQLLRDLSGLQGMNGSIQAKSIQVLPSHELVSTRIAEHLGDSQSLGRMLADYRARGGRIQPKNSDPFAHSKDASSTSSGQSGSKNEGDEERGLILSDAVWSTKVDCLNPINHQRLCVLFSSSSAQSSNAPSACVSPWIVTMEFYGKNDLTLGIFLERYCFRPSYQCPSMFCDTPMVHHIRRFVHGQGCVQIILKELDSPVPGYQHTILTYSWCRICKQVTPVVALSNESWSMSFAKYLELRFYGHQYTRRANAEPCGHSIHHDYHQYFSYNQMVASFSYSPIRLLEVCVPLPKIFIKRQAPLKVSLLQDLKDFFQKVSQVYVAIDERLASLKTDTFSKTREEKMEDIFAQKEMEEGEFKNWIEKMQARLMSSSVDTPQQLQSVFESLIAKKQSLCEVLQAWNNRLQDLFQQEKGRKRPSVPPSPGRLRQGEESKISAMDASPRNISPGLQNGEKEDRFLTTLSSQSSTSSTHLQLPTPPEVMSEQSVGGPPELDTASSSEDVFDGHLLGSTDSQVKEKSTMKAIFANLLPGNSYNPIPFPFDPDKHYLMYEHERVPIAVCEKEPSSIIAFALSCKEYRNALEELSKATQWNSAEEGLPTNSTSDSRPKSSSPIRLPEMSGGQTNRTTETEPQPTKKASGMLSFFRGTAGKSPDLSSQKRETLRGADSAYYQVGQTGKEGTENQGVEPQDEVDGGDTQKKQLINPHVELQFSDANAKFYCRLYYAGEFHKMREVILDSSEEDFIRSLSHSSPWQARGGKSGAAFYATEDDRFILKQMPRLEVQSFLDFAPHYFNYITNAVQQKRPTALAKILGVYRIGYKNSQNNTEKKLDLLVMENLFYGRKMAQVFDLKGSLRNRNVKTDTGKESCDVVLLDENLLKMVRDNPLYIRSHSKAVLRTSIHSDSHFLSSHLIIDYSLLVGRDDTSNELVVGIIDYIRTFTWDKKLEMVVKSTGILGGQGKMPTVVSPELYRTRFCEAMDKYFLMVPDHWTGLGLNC

[12] = biological target: Serine/threonine-protein kinase RIO2 ; RIOK2 ; Q9BVS4 (Homo sapiens, UniProt Q9BVS4)
[13] = biological target: Serine/threonine-protein kinase LATS1 ; LATS1 ; O95835 (Homo sapiens, UniProt O95835)
Chain of Serine/threonine-protein kinase LATS1 ; LATS1 ; O95835 (O95835 whole entry, one chain of several): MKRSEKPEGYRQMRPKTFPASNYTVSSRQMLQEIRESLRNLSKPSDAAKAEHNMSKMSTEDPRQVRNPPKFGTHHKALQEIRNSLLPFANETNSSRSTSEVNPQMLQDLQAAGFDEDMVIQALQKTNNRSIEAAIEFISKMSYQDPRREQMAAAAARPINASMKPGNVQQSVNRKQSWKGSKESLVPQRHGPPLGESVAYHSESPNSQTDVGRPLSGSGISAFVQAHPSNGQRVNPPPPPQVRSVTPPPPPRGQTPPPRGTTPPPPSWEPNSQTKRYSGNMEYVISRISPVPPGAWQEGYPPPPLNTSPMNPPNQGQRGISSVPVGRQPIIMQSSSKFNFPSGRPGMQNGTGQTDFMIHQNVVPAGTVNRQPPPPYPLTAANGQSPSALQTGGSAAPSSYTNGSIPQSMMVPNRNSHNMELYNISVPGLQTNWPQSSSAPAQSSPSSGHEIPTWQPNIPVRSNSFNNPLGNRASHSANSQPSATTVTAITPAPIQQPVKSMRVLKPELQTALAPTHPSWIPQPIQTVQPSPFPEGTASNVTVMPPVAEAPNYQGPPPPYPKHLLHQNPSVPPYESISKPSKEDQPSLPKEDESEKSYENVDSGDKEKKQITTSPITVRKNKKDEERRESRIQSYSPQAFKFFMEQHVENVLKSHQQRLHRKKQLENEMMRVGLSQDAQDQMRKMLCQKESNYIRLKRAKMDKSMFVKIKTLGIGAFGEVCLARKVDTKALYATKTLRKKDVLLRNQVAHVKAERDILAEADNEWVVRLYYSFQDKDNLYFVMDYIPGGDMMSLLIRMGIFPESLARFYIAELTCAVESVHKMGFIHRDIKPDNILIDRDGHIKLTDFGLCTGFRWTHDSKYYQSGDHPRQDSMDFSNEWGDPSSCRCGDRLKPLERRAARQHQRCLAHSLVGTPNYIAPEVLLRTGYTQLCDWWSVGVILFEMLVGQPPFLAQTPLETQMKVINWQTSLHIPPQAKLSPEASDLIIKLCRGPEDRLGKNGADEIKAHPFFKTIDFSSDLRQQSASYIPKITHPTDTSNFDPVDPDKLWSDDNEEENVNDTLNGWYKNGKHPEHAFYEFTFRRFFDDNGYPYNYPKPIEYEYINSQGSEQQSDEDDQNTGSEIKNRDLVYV

[14] = biological target: Serine/threonine-protein kinase TAO1 ; TAOK1 ; Q7L7X3 (Homo sapiens, UniProt Q7L7X3)
Chain of Serine/threonine-protein kinase TAO1 ; TAOK1 ; Q7L7X3 (Q7L7X3 whole entry, one chain of several): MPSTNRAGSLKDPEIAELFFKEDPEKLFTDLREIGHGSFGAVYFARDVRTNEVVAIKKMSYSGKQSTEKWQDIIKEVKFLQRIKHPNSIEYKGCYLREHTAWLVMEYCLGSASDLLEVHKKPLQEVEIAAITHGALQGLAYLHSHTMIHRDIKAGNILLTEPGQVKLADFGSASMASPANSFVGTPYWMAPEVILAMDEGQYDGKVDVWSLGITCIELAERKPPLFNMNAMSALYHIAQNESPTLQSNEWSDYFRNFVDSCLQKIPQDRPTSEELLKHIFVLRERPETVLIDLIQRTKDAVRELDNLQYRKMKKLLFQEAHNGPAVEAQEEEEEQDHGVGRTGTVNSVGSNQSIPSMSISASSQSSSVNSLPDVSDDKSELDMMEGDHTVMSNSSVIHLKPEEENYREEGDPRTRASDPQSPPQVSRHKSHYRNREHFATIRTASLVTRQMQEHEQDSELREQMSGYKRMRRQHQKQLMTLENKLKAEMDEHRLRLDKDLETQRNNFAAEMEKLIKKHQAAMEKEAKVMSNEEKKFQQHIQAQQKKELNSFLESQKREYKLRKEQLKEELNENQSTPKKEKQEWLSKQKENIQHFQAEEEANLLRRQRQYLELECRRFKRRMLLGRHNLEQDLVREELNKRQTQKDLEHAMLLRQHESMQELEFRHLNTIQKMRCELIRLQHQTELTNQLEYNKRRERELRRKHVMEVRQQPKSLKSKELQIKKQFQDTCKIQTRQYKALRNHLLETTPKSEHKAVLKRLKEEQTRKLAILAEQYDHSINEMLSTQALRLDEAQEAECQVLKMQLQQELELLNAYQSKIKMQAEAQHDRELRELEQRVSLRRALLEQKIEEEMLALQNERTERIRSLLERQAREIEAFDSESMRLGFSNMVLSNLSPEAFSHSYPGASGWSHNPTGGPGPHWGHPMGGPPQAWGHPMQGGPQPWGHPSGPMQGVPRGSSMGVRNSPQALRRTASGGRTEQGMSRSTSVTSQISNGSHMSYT

[15] = biological target: cAMP-dependent protein kinase catalytic subunit alpha ; PRKACA ; P17612 (Homo sapiens, UniProt P17612)
[16] = biological target: T1, Ephrin type-B receptor 1 ; EPHB1 ; P54762 (Homo sapiens, UniProt P54762)
T1 sequence (P54762 1-984): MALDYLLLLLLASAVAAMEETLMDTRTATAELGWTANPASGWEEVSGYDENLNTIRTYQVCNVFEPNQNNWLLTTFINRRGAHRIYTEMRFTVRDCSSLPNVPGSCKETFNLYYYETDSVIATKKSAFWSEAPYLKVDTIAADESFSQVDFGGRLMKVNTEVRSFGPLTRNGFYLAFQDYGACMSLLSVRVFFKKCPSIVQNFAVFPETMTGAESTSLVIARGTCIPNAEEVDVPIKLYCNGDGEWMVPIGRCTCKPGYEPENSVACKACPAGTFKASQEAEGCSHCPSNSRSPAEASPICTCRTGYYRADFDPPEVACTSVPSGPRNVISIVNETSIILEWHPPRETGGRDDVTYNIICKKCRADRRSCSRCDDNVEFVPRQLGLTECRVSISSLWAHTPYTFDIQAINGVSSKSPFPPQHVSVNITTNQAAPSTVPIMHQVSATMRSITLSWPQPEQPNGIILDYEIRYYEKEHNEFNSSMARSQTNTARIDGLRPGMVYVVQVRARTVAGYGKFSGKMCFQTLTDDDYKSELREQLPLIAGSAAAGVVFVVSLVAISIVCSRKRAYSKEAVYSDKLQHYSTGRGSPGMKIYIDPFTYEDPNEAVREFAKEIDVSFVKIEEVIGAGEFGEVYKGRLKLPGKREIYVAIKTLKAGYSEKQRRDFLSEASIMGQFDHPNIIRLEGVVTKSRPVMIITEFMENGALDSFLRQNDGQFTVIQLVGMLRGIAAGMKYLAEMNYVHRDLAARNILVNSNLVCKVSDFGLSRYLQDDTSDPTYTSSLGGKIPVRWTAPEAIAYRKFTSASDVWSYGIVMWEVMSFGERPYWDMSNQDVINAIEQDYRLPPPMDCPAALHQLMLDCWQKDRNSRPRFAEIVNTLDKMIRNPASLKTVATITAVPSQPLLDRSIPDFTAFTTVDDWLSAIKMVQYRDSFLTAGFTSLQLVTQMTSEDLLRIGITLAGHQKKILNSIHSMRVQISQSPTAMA

[17] = read-out: BAY-1251152 (10 µM) / %Intensity relative to DMSO
[18] = read-out: BAY-1143572 (10 µM) / %Intensity relative to DMSO

remaining activity at 10 µM [1, 17]: 133%
remaining activity at 10 µM [2, 17]: 129%
remaining activity at 10 µM [3, 17]: 120%
remaining activity at 10 µM [4, 17]: 118%
remaining activity at 10 µM [5, 17]: 107%
remaining activity at 10 µM [6, 17]: 82.9%
remaining activity at 10 µM [7, 17]: 112%
remaining activity at 10 µM [8, 17]: 129%
remaining activity at 10 µM [9, 17]: 124%
remaining activity at 10 µM [10, 17]: 109%
remaining activity at 10 µM [11, 17]: 102%
remaining activity at 10 µM [12, 17]: 111%
remaining activity at 10 µM [13, 17]: 114%
remaining activity at 10 µM [14, 17]: 88.3%
remaining activity at 10 µM [15, 17]: 101%
remaining activity at 10 µM [16, 17]: 108%
SMILES: COc1cc(F)ccc1-c1cc(Nc2cc(CS(C)(=N)=O)ccn2)ncc1F (centres unmarked) [BAY-1251152]

remaining activity at 10 µM [1, 18]: 141%
remaining activity at 10 µM [2, 18]: 119%
remaining activity at 10 µM [3, 18]: 133%
remaining activity at 10 µM [4, 18]: 122%
remaining activity at 10 µM [5, 18]: 116%
remaining activity at 10 µM [6, 18]: 79.4%
remaining activity at 10 µM [7, 18]: 110%
remaining activity at 10 µM [8, 18]: 137%
remaining activity at 10 µM [9, 18]: 119%
remaining activity at 10 µM [10, 18]: 104%
remaining activity at 10 µM [11, 18]: 94.3%
remaining activity at 10 µM [12, 18]: 123%
remaining activity at 10 µM [13, 18]: 118%
remaining activity at 10 µM [14, 18]: 114%
remaining activity at 10 µM [15, 18]: 115%
remaining activity at 10 µM [16, 18]: 91.7%
SMILES: COc1cc(F)ccc1-c1ncnc(Nc2cccc(C[S@](C)(=N)=O)c2)n1 [BAY-1143572]
